According to patent publication US7183054B2, “Assay for identifying biological targets of polynucleotide-binding compounds” (President and Fellows of Harvard College, priority 2003, dated 2007):

Tests used:
[1] = test system: A375 melanoma; settings: A375 melanoma tumor cell line; cited from earlier work
[2] = molecular target: T1, GAPDH (Bos taurus, UniProt P10096); assay: Affinity chromatography with drug-alkylated dsDNA resin in bovine brain lysate (GAPDH); format: binding; settings: ds-oligonucleotide resin alkylated with drug; bovine brain lysate, 4° C.; silver-stained SDS-PAGE
T1 construct: from tissue; host or cells: bovine brain homogenate
T1 sequence (P10096 2-333): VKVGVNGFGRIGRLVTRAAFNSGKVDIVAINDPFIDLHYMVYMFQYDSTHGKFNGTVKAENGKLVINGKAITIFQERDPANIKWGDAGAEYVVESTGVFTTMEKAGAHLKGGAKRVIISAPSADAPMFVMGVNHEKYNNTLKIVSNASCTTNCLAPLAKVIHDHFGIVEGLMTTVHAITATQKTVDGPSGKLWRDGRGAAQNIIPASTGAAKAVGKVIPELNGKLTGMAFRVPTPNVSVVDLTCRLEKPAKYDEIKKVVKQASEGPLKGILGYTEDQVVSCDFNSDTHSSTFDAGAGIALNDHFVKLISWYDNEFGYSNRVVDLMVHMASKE

[3] = test system: GAPDH; assay: as above; format: binding; settings: summary statement
[4] = molecular target: T2, Human erythrocyte GAPDH (Homo sapiens, UniProt P04406); assay: Southwestern blot of GAPDH with 32P-labeled dsDNA-drug complexes; format: binding; settings: membrane probed with 32P labeled DNA alkylated with drug
T2 construct: Human erythrocyte GAPDH (Sigma 6019) was dissovled in ddH2O; purchased Sigma 6019 (G6019); host or cells: human erythrocytes
T2 sequence (P04406 whole entry): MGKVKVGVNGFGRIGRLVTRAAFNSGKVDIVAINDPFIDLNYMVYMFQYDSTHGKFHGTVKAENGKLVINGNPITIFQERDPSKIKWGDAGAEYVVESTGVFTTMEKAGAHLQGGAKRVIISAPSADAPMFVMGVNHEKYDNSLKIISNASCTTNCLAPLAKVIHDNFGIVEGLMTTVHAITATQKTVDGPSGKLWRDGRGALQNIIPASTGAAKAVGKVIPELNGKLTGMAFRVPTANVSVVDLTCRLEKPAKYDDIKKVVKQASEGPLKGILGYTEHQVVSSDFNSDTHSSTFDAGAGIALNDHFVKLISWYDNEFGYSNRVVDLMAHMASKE
Experimental: FIG. 5 depicts the Southwestern blot technique using GAPDH and saframycins. FIG. 5A is a schematic of the Southwestern blot technique. […] The membranes with GAPDH were incubated with the various ^32P-labeled dsDNA-drug complexes. Lane 1: free dsDNA control; Lane 2: HQ alkylated dsDNA; Lane 3: QAD alkylated dsDNA; Lane 4: Pt 650 alkylated dsDNA; Lane 5: SafA alkylated dsDNA.
(§1) Construction of Drug-based Affinity Resin. The amino-modified QAD and its hemiaminal derivative, amino-modified HQ was prepared by coupling SafA synthetic intermediate^11 with 6-(4-Fmoc-amino-n-butoxy)-quinaldic acid followed by Fmoc deprotection. The amino-modified QAD/HQ was purified by reverse-phase HPLC and coupled to AffiGel-15. […] The amount of drug coupled to the affinity resin was determined by quantifying the drug that remained in the supernatant using reverse-phase HPLC. […] The supernatant solution was analyzed by reverse-phase HPLC. The amount of ds-oligonucleotide detected in the supernatant from the heating step was taken to be the amount of ds-oligonucleotide coupled to drug on the affinity resin in the form of stable dsDNA-drug binary complex. […] The concentration of double-stranded 21-mer DNA on the resin was determined by heat denaturing the double strand DNA on a known amount of resin and subsequently determining the concentration of complementary strand in free solution by UV spectrometry. […]

[5] = test system: A549 lung carcinoma; settings: A549 lung carcinoma tumor cell line; cited from earlier work
[6] = molecular target: T3, HMG1 (Bos taurus, UniProt P10103); assay: Affinity chromatography with drug-alkylated dsDNA resin in bovine brain lysate (HMG1); format: binding; settings: ds-oligonucleotide resin alkylated with drug; pre-cleared bovine brain lysate
T3 construct: from tissue; host or cells: bovine brain homogenate
T3 sequence (P10103 1-215): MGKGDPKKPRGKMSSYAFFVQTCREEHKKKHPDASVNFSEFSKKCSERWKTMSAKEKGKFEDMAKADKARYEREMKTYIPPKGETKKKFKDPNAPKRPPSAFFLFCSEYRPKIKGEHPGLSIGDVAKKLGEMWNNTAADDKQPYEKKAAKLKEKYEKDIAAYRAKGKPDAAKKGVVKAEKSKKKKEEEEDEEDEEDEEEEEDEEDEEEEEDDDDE
Experimental: FIG. 4 is a photograph of a silver-stained SDS-PA gel showing the affinity chromatography results. The affinity matrix was incubated in bovine brain lysate at 4° C., washed extensively, and heat denatured to release bound proteins. […]
as §1, with “Resin.” for “Resin. The amino-modified QAD and its hemiaminal derivative, amino-modified HQ was prepared by coupling SafA synthetic intermediate^11 with 6-(4-Fmoc-amino-n-butoxy)-quinaldic acid followed by Fmoc deprotection. The amino-modified QAD/HQ was purified by reverse-phase HPLC and coupled to AffiGel-15.”

[7] = test system: A549 cells; assay: GI50 in GAPDH siRNA transfected A549 cells (MTS); format: cell-based; settings: 72 hours drug exposure

| SMILES | IC50 [1] [nM] | binding of 37-kDa protein (GAPDH) to drug-dsDNA binary complex [2] | cellular target found [3] | radioactivity at GAPDH protein band [4] | IC50 [5] [nM] | binding of 31-kDa protein (HMG1) to drug-dsDNA binary complex [6] | GI50 change in GAPDH siRNA transfected cells vs control siRNA [7] | GI50 change in GAPDH siRNA transfected cells vs control siRNA ([7]; listed as cis-platin) |
| --- | --- | --- | --- | --- | --- | --- | --- | --- |
| COC1=C(C)C(=O)C2=C(C1=O)[C@@H]1[C@@H]3CC4=C(C(=O)C(OC)=C(C)C4=O)[C@H](CNC(=O)C(C)=O)N3[C@@H](C#N)[C@H](C2)N1C [(−)-Saframycin A] | 5.3 | bind specifically | target cellular GAPDH | radioactivity was detected | 133 |  |  |  |
| COc1cc2c(cc1O)CCN[C@]21CS[C@@H]2c3c(OC(C)=O)c(C)c4c(c3[C@H](COC1=O)N1[C@@H]2[C@H]2c3c(cc(C)c(OC)c3O)C[C@@H]([C@@H]1O)N2C)OCO4 [Ecteinascidin 743] | 0.15 |  | target cellular GAPDH |  | 1 |  |  |  |
| COc1c(C)cc2c(c1O)[C@@H]1[C@@H]3Cc4c(OC(C)=O)c(C)c5c(c4[C@H](CN4C(=O)c6ccccc6C4=O)N3[C@@H](C#N)[C@H](C2)N1C)OCO5 [Pt 650, phthalascidin] |  | bind specifically |  | radioactivity was detected |  |  |  |  |
| N.N.[Cl][Pt][Cl] [cisplatin] |  | did not bind |  |  |  | bind specifically | nearly the same sensitivity | unchanged |
| N.N.[Cl][Pt+2][Cl] [transplatin] |  | did not bind |  |  |  | did not recruit any protein |  |  |
